Values after ≈ are worked out from the molar mass of the structure shown.
Tests used:
[1] = Cmax in BALB/c mouse at 5 mg/kg, po measured upto 24 hrs by LC-MS/MS analysis; assay type: ADME, organism-based; design: dose 5 mg/kg, time < 24 hrs, route po; conditions: in vivo
[2] = Cytotoxicity against HEK293 cells assessed as reduction in cell viability incubated for 72 hrs by CCK-8 assay; assay type: toxicity, cell-based; conditions: human
CT26 [3] = experiment: Cytotoxicity against mouse CT26 cells assessed as reduction in cell viability incubated for 72 hrs by CCK-8 assay; conditions: CT26, 72 h
3LL cell line = experiment: Cytotoxicity against mouse 3LL cells assessed as reduction in cell viability incubated for 72 hrs by CCK-8 assay
[4] = molecular target: T1, Prostaglandin E2 receptor EP3 subtype (Homo sapiens, UniProt P43115); experiment: Antagonist activity at human EP3 receptor transfected in CHO/Galpha16 cells preincubated for 15 mins followed by PGE2 addition by calcium flux assay; assay type: functional, cell-based
T1 sequence (P43115 whole entry): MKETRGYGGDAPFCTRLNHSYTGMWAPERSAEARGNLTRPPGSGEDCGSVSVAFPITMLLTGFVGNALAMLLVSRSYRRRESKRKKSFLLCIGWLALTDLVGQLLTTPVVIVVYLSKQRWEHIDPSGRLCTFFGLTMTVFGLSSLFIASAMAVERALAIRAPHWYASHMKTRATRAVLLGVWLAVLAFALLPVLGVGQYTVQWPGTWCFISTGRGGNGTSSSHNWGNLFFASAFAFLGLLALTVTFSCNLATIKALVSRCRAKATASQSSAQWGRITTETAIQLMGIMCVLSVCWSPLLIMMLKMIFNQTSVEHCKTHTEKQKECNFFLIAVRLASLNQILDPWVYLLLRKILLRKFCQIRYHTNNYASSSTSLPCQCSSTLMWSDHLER

[5] = Half life in BALB/c mouse at 5 mg/kg, po measured upto 24 hrs by LC-MS/MS analysis; assay type: ADME, organism-based; conditions: in vivo
EMT6 = experiment: Cytotoxicity against mouse EMT6 cells assessed as reduction in cell viability incubated for 72 hrs by CCK-8 assay; conditions: EMT6, 72 h
[6] = molecular target: Prostaglandin E2 receptor EP4 subtype (Homo sapiens, UniProt P35408); experiment: Antagonist activity at human EP4 receptor transfected in CHO/Galpha16 cells preincubated for 15 mins followed by PGE2 addition by calcium flux assay; assay type: functional, cell-based
[7] = Kinetic solubility of compound in simulated intestinal fluid at pH 6.8 measured after 24 hrs by HPLC analysis; assay type: physicochemical; conditions: read-out: Kinetic_solubility
[8] = Metabolic stability in mouse liver microsomes assessed as intrinsic clearance; assay type: ADME, Microsome; conditions: read-out: CLH
[9] = Clearance in BALB/c mouse at 5 mg/kg, po measured upto 24 hrs by LC-MS/MS analysis; assay type: ADME, organism-based; conditions: in vivo
Panc02 = experiment: Cytotoxicity against mouse Panc02 cells assessed as reduction in cell viability incubated for 72 hrs by CCK-8 assay; conditions: Panc02, 72 h
[10] = Toxicity in BALB/c mouse allografted with mouse CT26 cells assessed as change in body weight at 75 mg/kg, po administered once a day for 14 days in presence of anti-PD-1 antibody; assay type: organism-based; conditions: in vivo, 336 h, time 14 day
[11] = Toxicity in BALB/c mouse allografted with mouse CT26 cells assessed as change in body weight at 75 mg/kg, po administered once a day measured after 14 days; assay type: organism-based; conditions: in vivo, 336 h, time 14 day
CT26 [12] = experiment: Antitumor activity against mouse CT26 cells allografted in BALB/c mouse assessed as median survival period at 75 mg/kg, po administered once a day for 14 days by Kaplan-Meier method (reference value: 15 days); assay type: functional; conditions: time 14 day
CT26 [13] = experiment: Antitumor activity against mouse CT26 cells allografted in BALB/c mouse assessed as median survival period at 75 mg/kg, po administered once a day for 14 days in presence of anti-PD-1 antibody by Kaplan-Meier method (reference value: 15 days); assay type: functional; conditions: time 14 day

Sequence of Prostaglandin E2 receptor EP4 subtype (P35408 whole entry): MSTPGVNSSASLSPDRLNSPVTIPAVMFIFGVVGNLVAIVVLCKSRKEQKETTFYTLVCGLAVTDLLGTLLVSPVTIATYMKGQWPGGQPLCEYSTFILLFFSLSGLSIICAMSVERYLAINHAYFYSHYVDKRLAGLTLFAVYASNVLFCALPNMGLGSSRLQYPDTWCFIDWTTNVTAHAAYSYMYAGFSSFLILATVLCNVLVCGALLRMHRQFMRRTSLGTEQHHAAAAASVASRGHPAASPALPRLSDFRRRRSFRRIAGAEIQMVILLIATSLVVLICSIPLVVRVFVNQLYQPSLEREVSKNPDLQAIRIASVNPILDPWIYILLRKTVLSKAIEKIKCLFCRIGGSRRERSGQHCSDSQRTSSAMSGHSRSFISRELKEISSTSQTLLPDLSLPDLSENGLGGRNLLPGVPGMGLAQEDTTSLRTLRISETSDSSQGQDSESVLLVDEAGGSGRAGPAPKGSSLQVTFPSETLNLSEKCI

IC50 [6] [µM]	SMILES	Cmax [1] [ng/mL]	IC50 at 72 h [2] [µM]	IC50 (CT26 [3]) [µM]	IC50 (3LL cell line) [µM]	IC50 [4] [µM]	half-life [5] [h]	IC50 (EMT6) [µM]	solubility kinetic at 24 h [7] [µM]	microsomal CLint [8] [µL/min/mg]	CL/F [9] [mL/min/kg]	IC50 (Panc02) [µM]	Activity [10]	Activity [11]	MST (CT26 [12]) [days]	MST (CT26 [13]) [days]
0.0017	C[C@H](NC(=O)c1c(Cc2cccc(C(F)(F)F)c2)sc2c1CCOC2)c1ccc(C(=O)O)cc1	664	> 100	> 100	> 100	> 10	3.5	> 100	182 (≈ 89.1 µg/mL)	< 9.6	49.9	> 100				
	O=C(O)c1ccc(CNC(=O)c2c(Cc3ccc(F)cc3)sc3c2CCOC3)cc1	982				> 10	6.2		> 200	< 9.6	38.5		Non-Toxic	Non-Toxic	26	41

Source: ChEMBL document CHEMBL5154936, “Scaffold Hopping Strategy to Identify Prostanoid EP4 Receptor Antagonists for Cancer Immunotherapy” (J Med Chem, 2022)
